How the values were obtained:
[1] = tested on: Phytophthora infestans; experiment: whole plant or invertebrate; format: in vivo; details: Phytophthora infestans, in Solanum lycopersicum, 96 h, read-out: control value (Test 1)
[2] = tested on: Pseudoperonospora cubensis; experiment: Test 2: control effect against cucumber downy mildew; format: in vivo; details: Pseudoperonospora cubensis, 120 h, control value vs untreated section
Method in brief: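 Protective test: zoospores (1.0×10^4 units/ml) misted one day after applying a 4 ppm suspension (wettable powder diluted in 1/5000 Tween20) to 2-leaf cucumber, Sagami hanjiro. After 16 hr at 22° C humid incubation, leaf lesion area read at day 5, expressed as control value versus untreated leaves.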

[3] = tested on: Plasmopara viticola; experiment: Test 3: control effect against grape downy mildew; format: in vivo; details: Plasmopara viticola, 120 h, control value vs untreated section
Method in brief: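 Leaf lesion area, scored 5 days after inoculation and compared with untreated plants, gives the control value. Inoculation used P. viticola zoospores (1.0×10^4 units/ml) with a 16 hr moist incubation at 22° C. It followed by one day a spray of 4 ppm compound (wettable powder in Tween20) onto Neomuscat seedlings.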

[4] = tested on: Pythium graminicola; experiment: Test 4: control effect against rice damping-off by the Pythium fungus (soil lavage); format: in vivo; details: 1,000 ppm, 2.5 ml test suspension drenched on contaminated soil, rice (koshihikari)
Method in brief: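 Compound at 1,000 ppm in 1/5000 Tween20 was drenched (2.5 ml) onto Koshihikari rice seeds, 3 pre-sprouted seeds per cell, sown in soil infested with Pythium graminicola (5 g/kg). Regime: 28 °C for 72 h, 5 °C for 2 days, then 25 °C for 14 days. Dead and stunted seedlings were scored into an onset rate, and control value = (1 − treated/untreated) × 100.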

## Cc1cc(C(F)(F)F)nn1CC(=O)N1CCC(c2nc(C3OCc4c(F)ccc(OS(C)(=O)=O)c4CO3)cs2)CC1 (centres unmarked) [Compound 1-8, 4-[4-(6-fluoro-9-methylsulfonyloxy-1,5-dihydro-3H-2,4-benzodioxepin-3-yl)-2-thiazolyl]-1-[2-[5-methyl-3-(trifluoromethyl)-1H-pyrazole-1-yl]acetyl]piperidine]
[1]
  pest or weed control at 4 µg/mL: 100%
[2]
  pest or weed control at 4 µg/mL: 100%
[3]
  pest or weed control at 4 µg/mL: 100%
other
  melting point: 151 °C

## COc1ccc(F)c2c1COC(c1csc(C3CCN(C(=O)Cc4cc(C)ccc4C)CC3)n1)OC2 (centres unmarked) [Compound 2-52, 4-[4-(6-fluoro-9-methoxy-1,5-dihydro-3H-2,4-benzodioxepin-3-yl)-2-thiazolyl]-1-[2-(2,5-dimethylphenyl)acetyl]piperidine]
[1]
  pest or weed control at 4 µg/mL: 100%
[2]
  pest or weed control at 4 µg/mL: 100%
[3]
  pest or weed control at 4 µg/mL: 100%
[4]
  pest or weed control at 1000 ppm: ≥ 90%

## Cc1ccc(C)c(N(C)C(=O)N2CCC(c3nc(C4OCc5c(F)ccc(OS(C)(=O)=O)c5CO4)cs3)CC2)c1 (centres unmarked) [Compound 2-55, 4-[4-(6-fluoro-9-methylsulfonyloxy-1,5-dihydro-3H-2,4-benzodioxepin-3-yl)-2-thiazolyl]-1-[N-(2,5-dimethylphenyl)-N-methylcarbamoyl]piperidine]
[1]
  pest or weed control at 4 µg/mL: 100%
[2]
  pest or weed control at 4 µg/mL: 100%
[3]
  pest or weed control at 4 µg/mL: 100%
[4]
  pest or weed control at 1000 ppm: ≥ 90%

## Cc1ccc(C)c(N(C)C(=O)N2CCC(c3nc(C4OCc5cccc(OS(C)(=O)=O)c5CO4)cs3)CC2)c1 (centres unmarked) [Compound 2-56, 4-[4-(6-methylsulfonyloxy-1,5-dihydro-3H-2,4-benzodioxepin-3-yl)-2-thiazolyl]-1-[N-(2,5-dimethylphenyl)-N-methylcarbamoyl]piperidine]
[1]
  pest or weed control at 4 µg/mL: 90%
[2]
  pest or weed control at 4 µg/mL: 30%
[3]
  pest or weed control at 4 µg/mL: 70%
[4]
  pest or weed control at 1000 ppm: ≥ 90%

## Cc1ccc(C)c(CC(=S)N2CCC(c3nc(C4OCc5c(F)ccc(OS(C)(=O)=O)c5CO4)cs3)CC2)c1 (centres unmarked) [Compound 2-57, 4-[4-(6-fluoro-9-methylsulfonyloxy-1,5-dihydro-3H-2,4-benzodioxepin-3-yl)-2-thiazolyl]-1-[2-(2,5-dimethylphenyl)thioacetyl]piperidine]
[1]
  pest or weed control at 4 µg/mL: 100%
[2]
  pest or weed control at 4 µg/mL: 100%
[3]
  pest or weed control at 4 µg/mL: 100%
[4]
  pest or weed control at 1000 ppm: ≥ 90%

From patent publication US10104891B2 (priority 2014, dated 2018)
